Results as given in US12036237B2, “Bromide source for use in treating autism spectral disorder” (INSERM (INSTITUT NATIONAL DE LA SANTE ET DE LA RECHERCHE …, priority 2016, dated 2024).
Entries after “also recorded” stand apart in the source; their conditions may differ.

Experiments:
Fmr1−/− mice [1] = experiment: Motor stereotypies scoring; type: in vivo; details: all animals (Fmr1 line); bromide 250 mg/kg i.p. daily
Description: (§1) Sodium bromide (anhydrous, Sigma-Aldrich, Saint-Quentin, France) dissolved in saline solution (NaCl, 0.9%) at the dose of 250 or 500 mg/kg, or vehicle (NaCl, 0.9%), was administered intraperitoneally once a day for 19 days in a volume of 20 ml/kg. On testing days, bromide was administered 30 min before behavioural assays. Bumetanide (Tocris, provided by Bio-Techne, Lille, France) dissolved in NaCl 0.9% at the dose of 0.5 mg/kg (Deidda et al, 2015) or vehicle was administered intraperitoneally once a day for 19 days in a volume of 20 ml/kg.
(§2) Behavioural assays started after a week of daily bromide (or bumetanide) treatment.

Shank3B−/− mice [2] = experiment: Motor stereotypies scoring; type: in vivo; details: bromide 250 mg/kg i.p. daily
Description: as §1, §2

Oprm1−/− mice [3] = experiment: Three-chamber social novelty preference test; details: bromide 125, 250, 500 mg/kg i.p. daily vs saline
Oprm1−/− mice [4] = experiment: Marble burying test; details: bromide 125, 250, 500 mg/kg i.p. daily
Oprm1−/− mice [5] = experiment: Motor stereotypies scoring
[6] = literature statement (Romermann et al, 2017); cited from earlier work
Fmr1−/− mice [7] = experiment: Three-chamber social novelty preference test; type: in vivo; details: bromide 250 mg/kg i.p. daily
Description: as §1, §2
(§3) Three-chamber social novelty preference test.

Shank3B−/− mice [8] = experiment: Three-chamber social novelty preference test; type: in vivo; details: bromide 250 mg/kg i.p. daily
Description: as §1, §2, §3

Oprm1−/− mice [9] = experiment: Novelty-suppressed feeding test; details: for latency to feed: Oprm1 wild-type and null mice, bromide 250, 500 mg/kg
[10] = Example 2, Oprm1 wild-type and mutants, bromide 250, 500 mg/kg
[11] = Example 2, Oprm1 wild-type and mutants, bromide 250, 500 mg/kg, listed as Bromide
[12] = Example 2, bromide 250, 500 mg/kg
[13] = Oprm1−/− mice, bromide 125, 250, 500 mg/kg i.p. daily
[14] = all animals, bromide 125, 250, 500 mg/kg i.p. daily

[Br-].[Na+] [bromide, Sodium bromide]
time spent burying (Fmr1−/− mice [1]): reduced
number of rearing episodes (Shank3B−/− mice [2]; Shank3B−/− and wild-type): no effect
motor stereotypies (overall) (Shank3B−/− mice [2]; Shank3B−/− mice): efficiently reduced; also recorded: relieves
number of circling episodes (Shank3B−/− mice [2]; Shank3B−/− mice): normalized; also recorded: reduced
number of grooming episodes (Shank3B−/− mice [2]; Shank3B−/− mice): normalized
number of shakes (Shank3B−/− mice [2]; Shank3B−/− mice): normalized; also recorded: reduced
difference (mouse over toy) in nose (close) contact duration (Oprm1−/− mice [3]): restored difference
difference (mouse over toy) in number of nose (close) contacts (Oprm1−/− mice [3]): restored difference
difference (mouse over toy) in time spent in nose (close) contact (Oprm1−/− mice [3]): restored difference
difference (preference for the mouse over the toy) in time spent in compartments (Oprm1−/− mice [3]): restored difference
social preference (overall) (Oprm1−/− mice [3]): restored social preference; also recorded: increased social preference; also recorded: restored preference for the living mouse over the toy
number of marbles buried (Oprm1−/− mice [4]): reduced; also recorded: diminished
number of grooming episodes (Oprm1−/− mice [5]; [10]): increased grooming episodes in wild-type (WT) animals without effects in mu opioid receptor knockouts
number of head shakes (Oprm1−/− mice [5]; [10]): increased the number of head shakes in control mice to the level of mutants
number of grooming episodes (Oprm1−/− mice [5]; [11]): increased the number of grooming episodes and male and female wild-type mice, but not in mutants
number of head shakes (Oprm1−/− mice [5]; [11]): increased the number of head shakes in male and female wild-type mice, not in mutants
motor stereotypies (overall) (Oprm1−/− mice [5]; Example 2, Oprm1−/− mice, bromide 250, 500 mg/kg): little effect
time spent burying (Oprm1−/− mice [5]; Example 2, all treated animals, bromide 250, 500 mg/kg): decreased
circling behavior (Oprm1−/− mice [5]; [12]): little effect
number of burying episodes and their duration (Oprm1−/− mice [5]; [12]): did not modify
circling behavior (Oprm1−/− mice [5]; Example 2, bromide 250, 500 mg/kg, listed as Bromide): no effect
number of rearing episodes (Oprm1−/− mice [5]; Example 2, males since 250 mg/kg, females at 500 mg/kg only): increased the number of rearing episodes in wild-type and not knockout animals
number of grooming episodes (Oprm1−/− mice [5]; Oprm1−/− and wild-type, bromide 125, 250, 500 mg/kg i.p. daily): dose-dependently increased the number of grooming episodes, but in wild-type animals only; also recorded: increased grooming occurrence in wild-type animals only
motor stereotypies (shakes and circling), overall (Oprm1−/− mice [5]; [13]): efficiently reduce; also recorded: demonstrated efficacy in reducing; also recorded: significant decrease
number of circling episodes (Oprm1−/− mice [5]; [13]): normalized
number of circling episodes (Oprm1−/− mice [5]; Oprm1−/− mice, bromide 125, 250, 500 mg/kg i.p. daily, listed as Bromide): decreased
number of shakes (Oprm1−/− mice [5]; Oprm1−/− mutant mice, bromide 125, 250, 500 mg/kg i.p. daily): reduced their occurrence
number of shakes (Oprm1−/− mice [5]; Oprm1−/− mutant mice, bromide 125, 250, 500 mg/kg i.p. daily, listed as Bromide): decreased
number of rearing episodes (Oprm1−/− mice [5]; all animals (Oprm1−/− and wild-type), bromide 125, 250, 500 mg/kg i.p. daily): increased
number of burying episodes (Oprm1−/− mice [5]; [14]): dose-dependently reduced; also recorded: dose dependently reduced
time spent burying (Oprm1−/− mice [5]; [14]): dose-dependently reduced
number of shakes (Oprm1−/− mice [5]; wild-type (Oprm1+/+) mice, bromide 125, 250, 500 mg/kg i.p. daily): dose-dependently increased
number of shakes (Oprm1−/− mice [5]; wild-type (Oprm1+/+) mice, bromide 125, 250, 500 mg/kg i.p. daily, listed as Bromide): increased
ability to cross the blood brain barrier [6]: easily cross this barrier
number of close contacts with the mouse (Fmr1−/− mice [7]; Fmr1 knockout or wild-type): no significant effect
preferential time spent in the compartment with the mouse (Fmr1−/− mice [7]; Fmr1 knockout or wild-type): no significant effect
duration of close contacts with the mouse versus the toy (Fmr1−/− mice [7]; Fmr1−/− mice): increased; also recorded: restored
preference in time spent in close contact with the mouse versus the toy (Fmr1−/− mice [7]; Fmr1−/− mice): increased; also recorded: restored
number of close contacts with the mouse versus the toy (Shank3B−/− mice [8]; Shank3B line): no significant effect
preferential time spent in the compartment with the mouse versus the toy (Shank3B−/− mice [8]; Shank3B line): no significant effect
duration of close contacts with the mouse versus the toy (Shank3B−/− mice [8]; Shank3B−/− mice): increased; also recorded: restored
preference in time spent in close contact with the mouse versus the toy (Shank3B−/− mice [8]; Shank3B−/− mice): increased; also recorded: restored
food intake in home cage (Oprm1−/− mice [9]; Example 2, Oprm1 mutants): increased food intake in mutants
latency to feed (Oprm1−/− mice [9]; Example 2): drastically reduced
latency to feed (Oprm1−/− mice [9]; Example 2, listed as Bromide): decreased in wild-type, and normalized in mu opioid receptor null mice
gender influence on latency to feed (Oprm1−/− mice [9]; Example 2, bromide 250 mg/kg): more effective in males than in females
dose at which the maximal effect on latency to feed was reached (Oprm1−/− mice [9]; Example 2, female Oprm1 null mice): 500 mg/kg
food intake in home cage (Oprm1−/− mice [9]; Example 2, female wild-type animals, bromide 250 mg): ate more than saline-treated animals
dose at which the maximal effect on latency to feed was reached (Oprm1−/− mice [9]; Example 2, male Oprm1 null mice): 250 mg/kg
feeding latency (Oprm1−/− mice [9]; Oprm1−/− mice, bromide, all three doses (125, 250, 500 mg/kg)): efficiently reduced the feeding latency to wild-type level; also recorded: normalized
behavioural signs of anxiety (overall) (Oprm1−/− mice [9]; Oprm1−/− mice, marble burying and novelty-suppressed feeding, bromide 125, 250, 500 mg/kg): efficiently reduced; also recorded: relieved
food intake back in the home cage (Oprm1−/− mice [9]; wild-type and mutant mice, bromide 125, 250, 500 mg/kg i.p. daily): increased
